PMC8279013 (Toxicology letters, 2020)

Molecular target: T1, pregnane X receptor (PXR) (Homo sapiens, UniProt O75469)
T1 sequence (O75469 1-434): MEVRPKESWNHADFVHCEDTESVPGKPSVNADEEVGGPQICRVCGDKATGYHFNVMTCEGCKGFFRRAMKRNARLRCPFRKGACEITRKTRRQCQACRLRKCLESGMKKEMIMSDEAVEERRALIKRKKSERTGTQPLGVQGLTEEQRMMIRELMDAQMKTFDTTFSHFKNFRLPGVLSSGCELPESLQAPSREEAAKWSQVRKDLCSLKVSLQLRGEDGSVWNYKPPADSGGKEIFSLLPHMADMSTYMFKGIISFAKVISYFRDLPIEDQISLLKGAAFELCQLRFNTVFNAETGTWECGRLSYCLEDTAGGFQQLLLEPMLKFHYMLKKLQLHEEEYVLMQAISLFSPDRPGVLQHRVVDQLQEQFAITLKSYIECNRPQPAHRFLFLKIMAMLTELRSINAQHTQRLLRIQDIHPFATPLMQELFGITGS
Assay: PXR element luciferase reporter, RIF-stimulated, stable hPXR-HRE cells
Type: cell-based

CC(=O)N1CCN(c2ccc(OC[C@H]3CO[C@](Cn4ccnc4)(c4ccc(Cl)cc4Cl)O3)cc2)CC1 (racemic) [ketoconazole]
IC50: 22.4 µM
